# According to patent US10519162B2, “6,7-dihydropyrazolo[1,5-α]pyrazin-4(5H)-one compounds and their use as negative allosteric modulators of mGluR2 receptors” (Janssen Pharmaceutica NV, priority 2014, dated 2019):
# What was measured:
# rats = assay: Reversal of the effect of the mGluR2 PAM JNJ-42153605-induced inhibition of scopolamine-induced hyperlocomotion (SCOP JNJ-42153605); format: in vivo, rat; conditions: Rattus norvegicus; PO (oral route); rats; reversal criterion total distance >1500 cm
# Method: 2) Reversal of the Effect of the mGluR2 PAM JNJ-42153605-Induced Inhibition of Scopolamine-Induced Hyperlocomotion Apparatus
# Motor activity was measured in microprocessor-based motor activity arenas (closed gray PVC cylinders with a height of 39 cm and a diameter of 31 cm). Each arena was placed on an infrared LED (8×8 LEDs) lit box (white PVC squared box; 40×40 cm^2; height 12.5 cm. An infrared-sensitive tube camera and a white light source were mounted to the ceiling above the observation chamber to track the animal. The total distance traveled (cm) was recorded and analyzed using the Noldus Ethovision XT Video Tracking System (Version 7.0.418; Noldus, Wageningen, The Netherlands). The intensity of the light within the activity cages (measured in the centre at the level of the floor) ranged between 4 and 8 LUX.
# The rats were pretreated with test compound or vehicle at 60 min before the start of the activity recordings and placed into individual cages. The rats were challenged with JNJ-42153605 (3-(cyclopropylmethyl)-7-(4-phenylpiperidin-1-yl)-8-(trifluoromethyl)[1,2,4]triazolo[4,3-a]pyridine; WO2010/130424; Cid et al. J. Med. Chem. 2012, 55, 8770-8789) (20 mg/kg, i.v.) 30 min before the start of the activity recording combined with scopolamine (0.16 mg/kg, i.v.) just before the start of the activity measurements. Immediately after the injection of scopolamine, the rats were placed into the activity monitors and total distance travelled over the first 30 min was measured.
# Solvent-Pretreated Control Rats.
# Animals receiving the combination of JNJ-42153605 and scopolamine (n=433) almost always travelled a distance of less than 1500 cm (<1500 cm) (only 2.5% of the control rats travelled a distance of more than 1500 cm (>1500 cm)). On the other hand, animals challenged with scopolamine alone (n=215) always travelled a total distance of more than 1500 cm (>1500 cm) and almost always (in 95.8% of the rats) a distance of more than 4400 cm (>4400 cm). […] For reversal of the inhibitory effect of JNJ-42153605 on the scopolamine-induced hyperlocomotion, the following all-or-none criteria were adopted: (1) reversal: total distance >1500 cm.
# human mGlu2 receptor = target: T1, human mGlu2 receptor (Homo sapiens, UniProt Q14416); assay: [35S]GTPγS binding assay (mGluR2 negative allosteric modulation, glutamate ~EC80 60 μM); format: biochemical; conditions: for Emax: maximal % inhibition relative to the control glutamate response (EC80 glutamate), read-out: GTPγS-hmGluR2 anGT Emax; for IC50: membranes from CHO cells transfected with human mGlu2 receptor, glutamate ~EC80 (60 μM), pIC50 = −log IC50 (M), read-out: GTPγS-hmGluR2 anGT pIC50 (converted)
# T1 construct: expressed in transfected cells; host or cells: CHO cells
# T1 sequence (Q14416 19-872): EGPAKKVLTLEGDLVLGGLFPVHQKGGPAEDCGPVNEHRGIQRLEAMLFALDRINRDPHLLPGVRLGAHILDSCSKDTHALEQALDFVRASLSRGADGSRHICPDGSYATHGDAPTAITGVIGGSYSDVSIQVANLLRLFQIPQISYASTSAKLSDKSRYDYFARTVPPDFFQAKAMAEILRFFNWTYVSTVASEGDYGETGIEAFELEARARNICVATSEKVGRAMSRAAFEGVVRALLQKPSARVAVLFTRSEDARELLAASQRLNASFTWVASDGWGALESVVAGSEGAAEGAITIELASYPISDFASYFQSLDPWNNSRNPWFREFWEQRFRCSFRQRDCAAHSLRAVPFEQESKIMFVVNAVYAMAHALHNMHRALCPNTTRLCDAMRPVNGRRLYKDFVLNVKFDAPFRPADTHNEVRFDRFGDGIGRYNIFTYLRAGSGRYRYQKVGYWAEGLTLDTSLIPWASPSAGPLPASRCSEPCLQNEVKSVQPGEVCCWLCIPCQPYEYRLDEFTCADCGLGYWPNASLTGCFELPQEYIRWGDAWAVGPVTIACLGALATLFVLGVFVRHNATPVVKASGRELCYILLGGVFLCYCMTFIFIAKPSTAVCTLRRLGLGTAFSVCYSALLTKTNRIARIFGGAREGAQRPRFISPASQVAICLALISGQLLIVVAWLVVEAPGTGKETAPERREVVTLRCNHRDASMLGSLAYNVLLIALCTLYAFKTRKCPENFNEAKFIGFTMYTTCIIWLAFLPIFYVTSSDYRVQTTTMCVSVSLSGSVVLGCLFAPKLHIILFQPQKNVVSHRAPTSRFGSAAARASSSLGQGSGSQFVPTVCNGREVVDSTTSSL
# Method: 1) [^35S]GTPγS Binding Assay
# [^35S]GTPγS Binding Assay
# Total reaction volume was 200 μl. […] Membrane-bound radioactivity was counted in a Topcount.
Emax (human mGlu2 receptor),IC50 (human mGlu2 receptor),melting point,Compound,ED50 (rats)
108%,1.15e-09 M,223.96 °C,C[C@H]1CN(c2ccc(S(F)(F)(F)(F)F)cc2)C(=O)c2c(NC(=O)c3cccnc3N)cnn21 [Co. No. 202],0.2 mg/kg
104%,1e-08 M,162.96 °C,COc1cc(N2C[C@H](C)n3ncc(NC(=O)c4cncc(F)c4)c3C2=O)ccc1C(F)(F)F [Co. No. 116],> 0.63 mg/kg
107%,2.63e-08 M,157.12 °C,COc1cc(N2C[C@H](C)n3ncc(NC(=O)c4ccnc(C)c4)c3C2=O)ccc1C(F)(F)F [Co. No. 123],> 0.63 mg/kg
105%,1.02e-08 M,217.95 °C,COc1cc(N2C[C@H](C)n3ncc(NC(=O)c4ccccn4)c3C2=O)ccc1C(F)(F)F [Co. No. 111],> 0.63 mg/kg
106%,6.61e-09 M,136.91 °C,COc1cccc(C(=O)Nc2cnn3c2C(=O)N(c2ccc(C(F)(F)F)cc2)C[C@@H]3C)c1 [Co. No. 27],> 2.5 mg/kg
103%,6.92e-09 M,163.67 °C,Cc1cncc(C(=O)Nc2cnn3c2C(=O)N(c2ccc(C(F)(F)F)c(F)c2)C[C@@H]3C)c1 [Co. No. 128],> 0.63 mg/kg
114%,,177 °C,C[C@H]1CN(c2ccc(C(F)F)c(Cl)c2)C(=O)c2c(NC(=O)c3ccc(N)nc3)cnn21 [Co. No. 6],> 2.5 mg/kg
110%,1.62e-09 M,189.94 °C,C[C@H]1CN(c2ccc(Cl)c(Cl)c2)C(=O)c2c(NC(=O)c3ccc(N)nc3)cnn21 [Co. No. 3],0.32 mg/kg
109%,9.77e-10 M,220.49 °C,Cc1cnc(N)c(C(=O)Nc2cnn3c2C(=O)N(c2ccc(Cl)c(Cl)c2)C[C@@H]3C)c1 [Co. No. 199],0.08 mg/kg
108%,4.27e-09 M,191.55 °C,COc1cc(N2C[C@H](C)n3ncc(NC(=O)c4cnccn4)c3C2=O)ccc1C(F)(F)F [Co. No. 118],> 0.63 mg/kg
106%,1.2e-08 M,287.45 °C,C[C@H]1CN(c2ccc(C(F)(F)F)cc2)C(=O)c2c(NC(=O)c3cnc(N)cn3)cnn21 [Co. No. 45],> 2.5 mg/kg
109%,1.66e-09 M,280.43 °C,C[C@H]1CN(c2ccc(C(F)(F)F)cc2)C(=O)c2c(NC(=O)c3cccc(S(N)(=O)=O)c3)cnn21 [Co. No. 177],> 0.63 mg/kg
106%,9.77e-09 M,115.19 °C,COc1cncc(C(=O)Nc2cnn3c2C(=O)N(c2ccc(C(F)(F)F)c(OC)c2)C[C@@H]3C)c1 [Co. No. 152],> 0.63 mg/kg
104%,2.57e-09 M,241.79 °C,C[C@H]1CN(c2ccc(C(F)(F)F)cc2)C(=O)c2c(NC(=O)c3ccccc3F)cnn21 [Co. No. 11],> 2.5 mg/kg
106%,2.09e-09 M,176.26 °C,C[C@H]1CN(c2ccc(C(F)(F)F)c(CF)c2)C(=O)c2c(NC(=O)c3cccnc3N)cnn21 [Co. No. 210],0.32 mg/kg
100%,6.92e-09 M,145.1 °C,"Cc1cc(C(=O)Nc2cnn3c2C(=O)N(c2ccc(C(F)(F)F)cc2)C[C@@H]3C)ccn1 [Co. No. 29, 2-Methyl-N-[(7S)-7-methyl-4-oxo-5-[4-(trifluoromethyl)phenyl]-6,7-dihydropyrazolo[1,5-a]pyrazin-3-yl]pyridine-4-carboxamide]",> 2.5 mg/kg
108%,2.69e-09 M,155.04 °C,Cc1cc(N2C[C@H](C)n3ncc(NC(=O)c4cncc(F)c4)c3C2=O)ccc1C(F)(F)F [Co. No. 107],> 0.63 mg/kg
